In patent US20250382298A1, “NITROGEN-CONTAINING COMPOUND AND USE THEREOF” (SUZHOU GENHOUSE BIO CO., LTD., priority 2022, published 2025):
Like-named read-outs stand apart in the source and are kept apart here.

Columns and labels:
BT-549 cells = experiment: Detection of cell proliferation activity by CCK8 method (BT-549); type: cell-based; conditions: CCK8, 96 h
From the text: (§1) This assay can be used to examine the potency of compounds in inhibiting the proliferation of tumor cells (OVCAR3, HT-29, BT-549, HCT-116). A lower IC50 value indicates high potency of the compound as a KIF18A inhibitor in the following assay setup,
(§2) McCoy's 5A medium purchased from Sangon Biotech; CCK8 kit purchased from Beyotime; OVCAR3, HT-29, HCT-116, and BT-549 cells purchased from Shanghai Fuheng Biotechnology Co., Ltd.; multimode microplate reader (Thermo).
(§3) Cells at the logarithmic growth phase were taken, digested with a cell lysis buffer (trypsin), centrifuged, counted, and seeded into a 96-well plate at an appropriate cell density (BT549: 1500 cells/well in 1640 medium. HT-29 and HCT-116: 2000 cells/well in McCoy's 5A medium), with 180 μL per well, for a total of 60 wells. The surrounding wells were filled with an equal amount of PBS to prevent water evaporation from the edge wells. The next day after cell plating, the test compounds at different concentration gradients (with an initial final concentration of 10 μM, diluted in a 1:5 gradient to obtain 9 concentration gradients) were added to the wells. Three replicate wells were set up for each concentration point, and a corresponding DMSO negative control group was also set up. Detection: After 96 h of drug treatment, the test cell culture plate was removed from the incubator. All the liquid in the 96-well plate was aspirated, and 100 μL of medium containing 10% CCK8 solution was added to each well. The plate was then incubated at 37° C. for 2 h (the OD450 of the DMSO group reached 1.5 or more), and the absorbance at 450 nm was measured using a microplate reader
(§4) After the background value was subtracted from the measurement for each well, the inhibition rate was calculated. Inhibition Rate (%)=(1−Sample/Vehicle)×100. Sample is the luminescence value of the drug treatment group, and Vehicle is the luminescence value of the DMSO control group. A sigmoidal dose-survival rate curve was plotted using a non-linear regression model in the GraphPad Prism 7.0 software, and the IC50 values were calculated.

HCT-116 cells [1] = experiment: Mitotic index analysis, pH3 expression in HCT-116 cells; type: cell-based; conditions: 24 h treatment
Protocol: (§5) HCT-116 and HT-29 cells at the logarithmic growth phase were taken, digested with a cell lysis buffer (trypsin), centrifuged, counted, and seeded into a 96-well plate at an appropriate cell density (20000 cells/well), with 100 μL per well. The surrounding wells were filled with an appropriate amount of PBS to prevent water evaporation. The next day, the cells were treated with the compounds at different concentrations (with a starting concentration of 10 μM, 3-fold diluted to obtain 9 concentration gradients). After 24 h, the medium was aspirated, and the cells were washed twice with 100 μL of PBS. The cells were then fixed with 4% paraformaldehyde and incubated at room temperature for 15 min. The fixative solution was discarded, and the cells were washed with PBS. Then, 150 μL of specialized blocking solution (containing 1% Triton-100) was added to each well for blocking at room temperature for 2 h, and the plate was washed with PBS to remove excess blocking solution. Anti-phistone H3 (pH3) was diluted at a ratio of 1:1000 with a blocking solution containing 0.033% Triton-100, and a blank control group was set up. Then, incubation was performed at 4° C. overnight. The next day, the plate was washed twice with 1×PBST. Anti-rabbit-IgG (H+L) (CST) and DRAQ5 (Thermofisher) were each diluted at an appropriate ratio with a blocking solution containing 0.033% Triton-100 (secondary antibody: 1:2000; DRAQ5: 1:10000). Then, incubation was performed at room temperature for 2 h. The plate was washed twice with 1×PBST and once with PBS. Fluorescence signals at 700 nm and 800 nm were detected using a Li—COR Odyssey two-color near-infrared laser imager. Calculation was performed as follows: pH3 expression (%)=(Cmpd dose/DMSO control)×100. Cmpd dose is the value of the drug treatment group, and DMSO control is the value of the DMSO control group. The EC50 values were determined by fitting using the GraphPad Prism 7.0 software.

HCT-116 cells [2] = experiment: Detection of cell proliferation activity by CCK8 method (HCT-116); type: cell-based; conditions: CCK8, 96 h
From the text: as §1, §2, §3, §4

OVCAR3 cells [3] = experiment: Detection of cell proliferation activity by CCK8 method (OVCAR3); type: cell-based
From the text: as §1, §2, §3, §4

HT-29 cells [4] = experiment: Mitotic index analysis, pH3 expression in HT-29 cells; type: cell-based, human; conditions: Homo sapiens, 24 h treatment
Protocol: as §5

OVCAR3 cells [5] = experiment: Detection of OVCAR3 cell proliferation activity by CTG method; type: cell-based; conditions: Homo sapiens, OVCAR-3, 168 h, CellTiter-Glo, 7 days
From the text: as §1
1640 medium; fetal bovine serum; penicillin/streptomycin antibiotics purchased from Wisent; CellTiter-Glo (chemiluminescence detection reagent for cell viability) reagent purchased from Promega; OVCAR3 cell line purchased from Nanjing Cobioer Biosciences Co., Ltd.; Nivo multimode microplate reader (PerkinElmer),
OVCAR3 cells were seeded into a white 96-well plate, with 80 μL of cell suspension containing 2000 OVCAR3 cells added to each well. The cell plate was incubated in a CO2 incubator overnight.
A test compound was 5-fold diluted to the 8th concentration (i.e., from 2 mM to […]) using a multichannel pipette, with duplicate wells set up. To an intermediate plate was added 78 μL of medium, and the serially diluted compound was transferred to the corresponding wells of the intermediate plate at 2 μL/well. The mixture was mixed well and then transferred to the cell plate at 20 μL/well. The concentration of the compound transferred to the cell plate ranged from 10 μM to 0.026 nM. The cell plate was incubated in a CO2 incubator for 7 days. Another cell plate was prepared and read for signal values on the day of compound addition, and these values were used as the maximum values (the Max value in the equation below) in data analysis. To this cell plate was added the chemiluminescence detection reagent for cell viability at 25 μL/well, and the luminescence signals were stabilized by incubation at room temperature for 10 min. Readings were taken using the multimode microplate reader.
To the cell plate was added the chemiluminescence detection reagent for cell viability at 25 μL/well, and the luminescence signals were stabilized by incubation at room temperature for 10 mm. Readings were taken using the multimode microplate reader, […]

HT-29 cells [6] = experiment: Detection of cell proliferation activity by CCK8 method (HT-29); type: cell-based, human; conditions: Homo sapiens, CCK8, 96 h
From the text: as §1, §2, §3, §4

[7] = Pharmacokinetic test in mice; type: in vivo; conditions: BALB/c mice; for AUC / Cmax / half-life: mouse, plasma; for half-life: read-out: t½ (converted)
Protocol: In this example, the pharmacokinetic behavior of the compounds after intravenous injection (IV) and intragastric (PO) administration in BALB/c mice was tested.
On the day of administration, mice were weighed for actual body weight and the administration volume was calculated. Each compound was tested in two groups with 9 mice in each group; one group was subjected to administration by single intravenous injection, and the other group of mice was subjected to single intragastric administration. Whole blood samples were collected via the orbit at prescribed time points (0.25 h, 0.5 h, 1 h, 2 h, 4 h, 8 h, and 24 h after administration). After blood sample collection, the samples were immediately transferred to labeled commercial sample tubes containing K2-EDTA (0.85-1.15 mg), followed by centrifugation (3200×g, 4° C., 10 min) and plasma collection. The plasma was transferred to a pre-cooled centrifuge tube, frozen in dry ice, and then stored in an ultra-low temperature freezer at −60° C. or lower until the LC-MS/MS analysis.
Plasma concentrations were determined by the LC-MS/MS method. Plasma drug concentration data for the compounds were processed using a non-compartmental model in the WinNonlin Version 6.3 (Pharsight, Mountain View, CA) pharmacokinetic software. The relevant pharmacokinetic parameters were calculated by a linear-log trapezoidal method.

KIF18A = KIF18A (Homo sapiens (Human), UniProt Q8NI77); experiment: KIF18A enzymatic activity inhibition, ADP-Glo kit; type: biochemical; conditions: 4 nM KIF18A, 30 μM ATP
Chain of KIF18A (Q8NI77 1-467): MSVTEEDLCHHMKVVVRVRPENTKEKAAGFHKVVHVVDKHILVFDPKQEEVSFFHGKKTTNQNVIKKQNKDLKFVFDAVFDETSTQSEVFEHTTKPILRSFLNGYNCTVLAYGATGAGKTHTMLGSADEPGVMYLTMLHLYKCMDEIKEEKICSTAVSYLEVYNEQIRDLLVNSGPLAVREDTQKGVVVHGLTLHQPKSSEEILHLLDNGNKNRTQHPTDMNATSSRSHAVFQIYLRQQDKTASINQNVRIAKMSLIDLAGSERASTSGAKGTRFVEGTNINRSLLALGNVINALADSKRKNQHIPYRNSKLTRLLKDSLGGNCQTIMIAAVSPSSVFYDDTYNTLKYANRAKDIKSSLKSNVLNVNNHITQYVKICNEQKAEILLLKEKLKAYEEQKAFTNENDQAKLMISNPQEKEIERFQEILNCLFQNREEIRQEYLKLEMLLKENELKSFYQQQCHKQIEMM
Protocol: In this experiment, an ADP-Glo kit was used to detect the inhibitory activity of the compounds against KIF18A. Each compound was prepared into a 10 mM stock solution with DMSO, which was then diluted at 1:5 to obtain 9 gradients with the initial final concentration set at 10 μM. Meanwhile, a control group and a blank group were also set up. The reaction buffer consisted of 15 mM Tris (pH 7.5), 10 mM MgCl2, and 0.01% Pluronic F-68. 4 nM KIF18A (1467) and the test compound were added to a 384-well plate and incubated at 37° C. for 20 mm. Then, 30 μM ATP was added to initiate the enzymatic reaction, and the plate was incubated at room temperature for 15 min. Finally, the ADP-Glo reagent was added to detect the luminescence intensity, where the luminescence intensity is directly proportional to the ADP content. Inhibition rate (%)=[…]. Sample signal is the value of the compound group, and DMSO signal is the value of the DMSO control group. Then, the inhibition rate at each concentration was calculated, and the IC50 was determined by fitting using the GraphPadPrism 7.0 software.

[8] = Homo sapiens, OVCAR-3, CCK8, 96 h

Row | Compound | IC50 (BT-549 cells; Homo sapiens) [nM] | EC50 (HCT-116 cells [1]; Homo sapiens) [nM] | IC50 (HCT-116 cells [2]; Homo sapiens) [nM] | IC50 (OVCAR3 cells [3]; [8]) [nM] | EC50 (HT-29 cells [4]) [nM] | IC50 (OVCAR3 cells [5]) [nM] | IC50 (HT-29 cells [6]) [nM] | F ([7]; PO @30mpk) [%] | AUC ([7]; 30 mg/kg, PO @30mpk) [µM·h] | Cmax ([7]; 30 mg/kg, PO @30mpk) [µM] | half-life ([7]; 30 mg/kg, PO @30mpk) [h] | IC50 (BT-549 cells) [nM] | EC50 (HCT-116 cells [1]) [nM] | IC50 (HCT-116 cells [2]) [nM] | IC50 (OVCAR3 cells [3]; CCK8, 96 h) [nM] | IC50 (KIF18A) [nM] | F ([7]; PO @5mpk) [%] | AUC ([7]; 5 mg/kg, PO @5mpk) [µM·h] | Cmax ([7]; 5 mg/kg, PO @5mpk) [µM] | half-life ([7]; 5 mg/kg, PO @5mpk) [h]
1 | O=C(Nc1cn2ccnc2c(N2CCC3(CC2)CC3)n1)c1ccc(NS(=O)(=O)CCO)cc1N1CCC2(CC1)CC2 [Compound 31] | 111 | > 10000 | > 10000 | 41.8 | 64 | 67.6 | 93.8 |  |  |  |  |  |  |  |  |  |  |  |  | 
2 | CS(=O)(=O)Nc1ccc(C(=O)Nc2cc3cccnc3c(N3CCC(F)(F)CC3)n2)c(N2CCC3(CC2)CC3)c1 [Compound 32] | 46.1 | > 10000 | > 10000 | 22.4 | 61.8 | 29.9 | 45.3 |  |  |  |  |  |  |  |  |  |  |  |  | 
3 | CS(=O)(=O)Nc1ccc(C(=O)Nc2cc3cccnc3c(N3CCC(F)(F)CC3)n2)c(N2CC3CCC(C3)C2)c1 [Compound 33] | 118 | > 10000 | > 10000 | 53.3 | 58.5 | 75 | 84.2 | 108 | 126 | 6.31 | 134 |  |  |  |  |  |  |  |  | 
4 | O=C(Nc1cn2ccnc2c(N2CCC(F)(F)CC2)n1)c1ncc(NS(=O)(=O)CCO)cc1N1CCC2(CC1)CC2 [Compound 37] |  |  |  |  |  |  |  |  |  |  |  | 611 | > 10000 | > 10000 | 234 | 11.3 |  |  |  | 
5 | O=C(Nc1cn2c(F)cnc2c(N2CCC(F)(F)CC2)n1)c1ccc(NS(=O)(=O)CCO)cc1N1CC2CCC(C2)C1 [Compound 51] | 54.7 | > 10000 | > 10000 | 26.1 | 13.7 |  | 35.7 | 67 | 272 | 14.2 | 62.3 |  |  |  |  |  |  |  |  | 
6 | CS(=O)(=O)Nc1ccc(C(=O)Nc2cn3ncnc3c(N3CCC(F)(F)CC3)n2)c(N2CC3CCC(C3)C2)c1 [Compound 53] | 170 | > 10000 | > 10000 | 32.8 | 26.7 |  | 44.7 | 16 | 78.3 | 4.56 | 13 |  |  |  |  |  |  |  |  | 
7 | Cn1ncc2cc(NC(=O)c3ccc(NS(=O)(=O)CCO)cc3N3CC4CCC(C4)C3)nc(N3CCC(F)(F)CC3)c21 [Compound 55] | 54.4 | > 10000 | > 10000 | 6.8 | 4.6 |  | 12.7 | 109 | 380 | 25.8 | 7.8 |  |  |  |  |  |  |  |  | 
8 | CS(=O)(=O)Nc1ccc(C(=O)Nc2cc3nccnc3c(N3CCC(F)(F)CC3)n2)c(N2CC3CCC(C3)C2)c1 [Compound 72] | 330 | > 10000 | > 10000 | 66.6 | 72.4 |  | 141 |  |  |  |  |  |  |  |  |  | 175 | 66.3 | 5.34 | 6
